Molecules are shown by their SMILES. Bounds are passed on as bounds.

One experiment concerns H929 human cancer cell lines. As to the kind of experiment: Cellular viability / proliferation (Cell TiterGlo, 72 h). The class given is cell-based. As to conditions: Homo sapiens, NCI-H929, 72 h, read-out: GI50 on cellular proliferation of H929 human cancer cell lines, H929 cells, 72 h, Cell TiterGlo, 10% FBS. As for the experimental part: Cellular Viability of Human Tumor Cell Lines
To evaluate compound effect on cellular proliferation, cells were plated at 1,000 cells/well in 96-well tissue culture plates in a total volume of 90 μL medium supplemented with 10% FBS (Sigma, Saint Louis, Mo.). 24 hours later, 10 μL of compound (in a 2-fold serial dilution) is added to the cells for a top concentration of 50 μM and a final DMSO concentration <1%. After 72 hours, 50 μL of Cell TiterGlo (Promega, Madison, Wis., USA) reagent is added to each well and plates are incubated at room temperature, in the dark, for 30 minutes. Luminescence is measured on a BioTek Cytation 3. Luminescence values are imported into a template in XLFit (Guildford, Surrey, UK) that uses a four-parameter fit to generate an IC50 value for each compound dilution series on the plate.
In general terms: ATP-based viability assays read luminescence as a measure of living cells.
For `Cc1cc(OCCCc2c3n(c4c(-c5c(C)nn(C)c5C)c(Cl)ccc24)[C@H](C)CN(c2cc(N(C)C(=O)CN4CCCCC4)cc4c(C(=O)O)cn(C)c24)C3=O)cc(C)c1Cl` [Example 612, (R)-7-(7-chloro-10-(3-(4-chloro-3,5-dimethylphenoxy)propyl)-4-methyl-1-oxo-6-(1,3,5-trimethyl-1H-pyrazol-4-yl)-3,4-dihydropyrazino[1,2-a]indol-2(1H)-yl)-1-methyl-5-(N-methyl-2-(piperidin-1-yl)acetamido)-1H-indole-3-carboxylic acid], the GI50 was 7600 nM.

Consider `COc1ccc(N2C[C@@H](C)n3c(c(CCCOc4cc(C)c(Cl)c(C)c4)c4ccc(Cl)c(-c5c(C)nc(CN6CCN(C)CC6)nc5C)c43)C2=O)c2c1cc(C(=O)O)n2Cc1ccccn1` [Example 492, (R)-7-(7-Chloro-10-(3-(4-chloro-3,5-dimethylphenoxy)propyl)-6-(4,6-dimethyl-2-((4-methylpiperazin-1-yl)methyl)pyrimidin-5-yl)-4-methyl-1-oxo-3,4-dihydropyrazino[1,2-a]indol-2(1H)-yl)-4-methoxy-1-(pyridin-2-ylmethyl)-1H-indole-2-carboxylic acid], for which the GI50 was 360 nM. On the same count and under the same terms, the figure for `Cc1cc(N2C[C@@H](C)n3c(c(CCCOc4cc(C)c(Cl)c(C)c4)c4ccc(Cl)c(-c5c(C)nn(C)c5C)c43)C2=O)c2c(c1)cc(C(=O)O)n2CCN1CCOCC1` [Example 597, (R)-7-(7-chloro-10-(3-(4-chloro-3,5-dimethylphenoxy)propyl)-4-methyl-1-oxo-6-(1,3,5-trimethyl-1H-pyrazol-4-yl)-3,4-dihydropyrazino[1,2-a]indol-2(1H)-yl)-5-methyl-1-(2-morpholinoethyl)-1H-indole-2-carboxylic acid] is 690 nM.

With `Cc1cc(OCCCc2c3n(c4c(-c5c(C)nn(C)c5C)c(Cl)ccc24)CCCN(c2cn(C)c4cc(C(=O)O)ccc24)C3=O)cc(C)c1Cl` [Example 68, 3-(8-Chloro-11-(3-(4-chloro-3,5-dimethylphenoxy)propyl)-1-oxo-7-(1,3,5-trimethyl-1H-pyrazol-4-yl)-4,5-dihydro-1H-[1,4]diazepino[1,2-a]indol-2(3H)-yl)-1-methyl-1H-indole-6-carboxylic acid], the GI50 was 350 nM. Same read-out and setting: the figure for `Cc1cc(OCCCc2c3n(c4c(-c5c(C)nn(C)c5C)c(Cl)ccc24)[C@@H](C)CN(c2cn(C)c4ccc(C(=O)O)cc24)C3=O)cc(C)c1Cl` [Example 212, (S)-3-(7-chloro-10-(3-(4-chloro-3,5-dimethylphenoxy)propyl)-4-methyl-1-oxo-6-(1,3,5-trimethyl-1H-pyrazol-4-yl)-3,4-dihydropyrazino[1,2-a]indol-2(1H)-yl)-1-methyl-1H-indole-5-carboxylic acid] is 3400 nM; for `Cc1cc(OCCCc2c3n(c4c(-c5c(C)nn(C)c5C)c(Cl)ccc24)CCCN(Cc2cc(C(=O)O)ccn2)C3=O)cc(C)c1Cl` [Example 43, 2-((8-Chloro-11-(3-(4-chloro-3,5-dimethylphenoxy)propyl)-1-oxo-7-(1,3,5-trimethyl-1H-pyrazol-4-yl)-4,5-dihydro-1H-[1,4]diazepino[1,2-a]indol-2(3H)-yl)methyl)isonicotinic acid] it is 9400 nM.

With `Cc1cc(OCCCc2c3n(c4c(-c5c(C)nn(C)c5C)c(Cl)ccc24)CCCN(c2cn(C)c4ccc(C(=O)O)cc24)C3=O)cc(C)c1Cl` [Example 80, 3-(8-Chloro-11-(3-(4-chloro-3,5-dimethylphenoxy)propyl)-1-oxo-7-(1,3,5-trimethyl-1H-pyrazol-4-yl)-4,5-dihydro-1H-[1,4]diazepino[1,2-a]indol-2(3H)-yl)-1-methyl-1H-indole-5-carboxylic acid], the GI50 was determined as 250 nM. The same measure, in the same setting: the result for `Cc1cc(OCCCc2c3n(c4c(-c5c(C)nn(C)c5C)c(Cl)ccc24)[C@H](C)CN(c2cccc4c(C(N)=O)cn(C)c24)C3=O)cc(C)c1Cl` [Example 357, (R)-7-(7-Chloro-10-(3-(4-chloro-3,5-dimethylphenoxy)propyl)-4-methyl-1-oxo-6-(1,3,5-trimethyl-1H-pyrazol-4-yl)-3,4-dihydropyrazino[1,2-a]indol-2(1H)-yl)-1-methyl-1H-indole-3-carboxamide] reads 2000 nM. Same read-out and setting: the figure for `Cc1cc(OCCCc2c3n(c4c(-c5c(C)nn(C)c5C)c(Cl)ccc24)CCCN(c2ccc(C(=O)O)c4ccn(C)c24)C3=O)cc(C)c1Cl` [Example 55, 7-(8-Chloro-11-(3-(4-chloro-3,5-dimethylphenoxy)propyl)-1-oxo-7-(1,3,5-trimethyl-1H-pyrazol-4-yl)-4,5-dihydro-1H-[1,4]diazepino[1,2-a]indol-2(3H)-yl)-1-methyl-1H-indole-4-carboxylic acid] is 5700 nM; for `COc1ccc(N2C[C@@H](C)n3c(c(CCCOc4cc(C)c(Cl)c(C)c4)c4ccc(Cl)c(-c5c(C)nn(C)c5C)c43)C2=O)c2c1c(C(=O)O)cn2Cc1cccc(C)n1` [Example 622, (R)-7-(7-chloro-10-(3-(4-chloro-3,5-dimethylphenoxy)propyl)-4-methyl-1-oxo-6-(1,3,5-trimethyl-1H-pyrazol-4-yl)-3,4-dihydropyrazino[1,2-a]indol-2(1H)-yl)-4-methoxy-1-((6-methylpyridin-2-yl)methyl)-1H-indole-3-carboxylic acid] it is 920 nM. On the same count and under the same terms, the result for `Cc1cccc(Cn2c(C(=O)O)cc3cc(OCCN(C)C)cc(N4C[C@@H](C)n5c(c(CCCOc6cc(C)c(Cl)c(C)c6)c6ccc(Cl)c(-c7c(C)nn(C)c7C)c65)C4=O)c32)n1` [Example 592, (R)-7-(7-chloro-10-(3-(4-chloro-3,5-dimethylphenoxy)propyl)-4-methyl-1-oxo-6-(1,3,5-trimethyl-1H-pyrazol-4-yl)-3,4-dihydropyrazino[1,2-a]indol-2(1H)-yl)-5-(2-(dimethylamino)ethoxy)-1-((6-methylpyridin-2-yl)methyl)-1H-indole-2-carboxylic acid] reads 880 nM.

Staying with this experiment, now noted: read-out: GI50 on cellular proliferation of H929 human cancer cell lines; H929 cells, 72 h, Cell TiterGlo, 10% FBS.
As to `Cc1cc(OCCCc2c3n(c4c(-c5c(C)nn(C)c5C)c(Cl)ccc24)[C@H](C)CN(c2cccc4cc(C(=O)O)ccc24)C3=O)cc(C)c1Cl` [Example 187, (R)-5-(7-Chloro-10-(3-(4-chloro-3,5-dimethylphenoxy)propyl)-4-methyl-1-oxo-6-(1,3,5-trimethyl-1H-pyrazol-4-yl)-3,4-dihydropyrazino[1,2-a]indol-2(1H)-yl)-2-naphthoic acid], the GI50 was less than 200 nM. For the compound `Cc1cc(OCCCc2c3n(c4c(-c5c(C)nn(C)c5C)c(Cl)ccc24)CCCN(c2cc(C(=O)O)c4ccn(C)c4c2)C3=O)cc(C)c1Cl` (single isomer, unassigned) [Example 440, 6-(8-chloro-11-(3-(4-chloro-3,5-dimethylphenoxy)propyl)-1-oxo-7-(1,3,5-trimethyl-1H-pyrazol-4-yl)-4,5-dihydro-1H-[1,4]diazepino[1,2-a]indol-2(3H)-yl)-1-methyl-1H-indole-4-carboxylic acid], the GI50 came out at 4500 nM. The same measure, in the same setting: the result for `Cc1cc(OCCCc2c3n(c4c(-c5c(C)ncnc5C)c(C)ccc24)[C@H](C)CN(c2cccc4cc(C(=O)O)n(Cc5ccccn5)c24)C3=O)cc(C)c1Cl` (atropisomer, axis not shown) [Example 276, (R)-7-(10-(3-(4-chloro-3,5-dimethylphenoxy)propyl)-6-(4,6-dimethylpyrimidin-5-yl)-4,7-dimethyl-1-oxo-3,4-dihydropyrazino[1,2-a]indol-2(1H)-yl)-1-(pyridin-2-ylmethyl)-1H-indole-2-carboxylic acid] reads 290 nM.

Source of the values: patent publication US11596639B2, “Substituted indole Mcl-1 inhibitors” (Vanderbilt University, priority 2016, dated 2023).
